# Laboratory results reported in the kinase profiling compilation of Christmann-Franck et al. (2016).
# Values joined by “and” are separate entries in the source; they are usually repeats but may differ in a detail not shown here. Equal entries are not always repeated.
# How the values were obtained:
# Assay in all cases: radiometric filter-binding kinase assay, Kinase HotSpot
# Conditions in all cases: compound 0.5 µM; ATP 10 µM
# [1] = target: MAPK10 (human) (UniProt P53779)
# [2] = target: SRMS (human) (UniProt Q9H3Y6)
# [3] = target: DYRK2 (human) (UniProt Q92630)
# [4] = target: CLK1 (human) (UniProt P49759)
# [5] = target: PBK (human) (UniProt Q96KB5)
# [6] = target: NEK4 (human) (UniProt P51957)
# [7] = target: NUAK2 (human) (UniProt Q9H093)
# [8] = target: ADRBK1 (human) (UniProt P25098)
# [9] = target: FGFR2 (human) (UniProt P21802)
# [10] = target: NEK9 (human) (UniProt Q8TD19)
# [11] = target: PTK2 (human) (UniProt Q05397)
# [12] = target: GRK4 (human) (UniProt P32298)
# [13] = target: TAOK2 (human) (UniProt Q9UL54)
# [14] = target: PLK3 (human) (UniProt Q9H4B4)
# [15] = target: LYN (human) (UniProt P07948)
# [16] = target: ERBB4 (human) (UniProt Q15303)
# [17] = target: BTK (human) (UniProt Q06187)
# [18] = target: MYLK2 (human) (UniProt Q9H1R3)
# [19] = target: SYK (human) (UniProt P43405)
# [20] = target: RPS6KA3 KD1 KD2 (human) (UniProt P51812)
# [21] = target: PLK1 (human) (UniProt P53350)
# [22] = target: MAPK9 (human) (UniProt P45984)
# [23] = target: CDC42BPB (human) (UniProt Q9Y5S2)
# [24] = target: HIPK1 (human) (UniProt Q86Z02)
# [25] = target: SGK3 (human) (UniProt Q96BR1)
# [26] = target: ITK (human) (UniProt Q08881)
# [27] = target: CAMKK1 (human) (UniProt Q8N5S9)
# [28] = target: CDK4 CCND3 (human) (UniProt P30281+P11802)
# [29] = target: NEK6 (human) (UniProt Q9HC98)
# [30] = target: PRKCB2 (human) (UniProt P05771)
# [31] = target: PRKG2 (human) (UniProt Q13237)
# [32] = target: MAP3K7 TAB1 (human) (UniProt O43318+Q15750)
# [33] = target: PRKCI (human) (UniProt P41743)
# [34] = target: RPS6KA1 KD1 KD2 (human) (UniProt Q15418)
# [35] = target: PHKG2 (human) (UniProt P15735)
# [36] = target: STK3 (human) (UniProt Q13188)
# [37] = target: DDR2 (human) (UniProt Q16832)
# [38] = target: DMPK (human) (UniProt Q09013)
# [39] = target: LIMK1 (human) (UniProt P53667)
# [40] = target: ACVR1 (human) (UniProt Q04771)
# [41] = target: CSNK1G1 (human) (UniProt Q9HCP0)
# [42] = target: PRKD3 (human) (UniProt O94806)
# Chain of CLK1 (human) (P49759 whole entry, looked up): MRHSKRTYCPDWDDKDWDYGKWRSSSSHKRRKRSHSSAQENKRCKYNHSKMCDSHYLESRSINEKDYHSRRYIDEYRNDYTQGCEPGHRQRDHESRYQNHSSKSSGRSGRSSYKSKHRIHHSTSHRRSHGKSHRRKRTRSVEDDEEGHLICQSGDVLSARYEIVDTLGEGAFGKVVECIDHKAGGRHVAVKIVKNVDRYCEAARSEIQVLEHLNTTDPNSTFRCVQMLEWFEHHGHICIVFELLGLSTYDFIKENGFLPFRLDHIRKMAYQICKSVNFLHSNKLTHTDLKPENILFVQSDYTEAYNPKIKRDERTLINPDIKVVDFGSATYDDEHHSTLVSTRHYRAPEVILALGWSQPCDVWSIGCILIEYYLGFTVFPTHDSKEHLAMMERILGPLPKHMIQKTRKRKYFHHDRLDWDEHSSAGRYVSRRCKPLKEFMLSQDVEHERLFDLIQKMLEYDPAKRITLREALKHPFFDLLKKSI
# Chain of MAPK10 (human) (P53779 whole entry, looked up): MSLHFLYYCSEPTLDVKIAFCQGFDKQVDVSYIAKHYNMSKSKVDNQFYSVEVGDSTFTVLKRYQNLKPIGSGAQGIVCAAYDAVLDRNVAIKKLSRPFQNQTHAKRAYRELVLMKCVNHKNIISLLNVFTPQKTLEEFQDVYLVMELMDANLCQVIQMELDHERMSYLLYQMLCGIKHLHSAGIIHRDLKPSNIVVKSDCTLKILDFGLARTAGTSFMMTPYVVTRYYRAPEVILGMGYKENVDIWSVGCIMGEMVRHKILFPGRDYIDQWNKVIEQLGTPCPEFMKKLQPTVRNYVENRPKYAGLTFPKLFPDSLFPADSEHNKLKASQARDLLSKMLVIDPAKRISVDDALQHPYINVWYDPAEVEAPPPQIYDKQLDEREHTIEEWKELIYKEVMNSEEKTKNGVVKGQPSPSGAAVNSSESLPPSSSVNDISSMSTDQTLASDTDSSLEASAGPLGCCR
# Chain of MAP3K7 TAB1 (human) (O43318 whole entry, looked up): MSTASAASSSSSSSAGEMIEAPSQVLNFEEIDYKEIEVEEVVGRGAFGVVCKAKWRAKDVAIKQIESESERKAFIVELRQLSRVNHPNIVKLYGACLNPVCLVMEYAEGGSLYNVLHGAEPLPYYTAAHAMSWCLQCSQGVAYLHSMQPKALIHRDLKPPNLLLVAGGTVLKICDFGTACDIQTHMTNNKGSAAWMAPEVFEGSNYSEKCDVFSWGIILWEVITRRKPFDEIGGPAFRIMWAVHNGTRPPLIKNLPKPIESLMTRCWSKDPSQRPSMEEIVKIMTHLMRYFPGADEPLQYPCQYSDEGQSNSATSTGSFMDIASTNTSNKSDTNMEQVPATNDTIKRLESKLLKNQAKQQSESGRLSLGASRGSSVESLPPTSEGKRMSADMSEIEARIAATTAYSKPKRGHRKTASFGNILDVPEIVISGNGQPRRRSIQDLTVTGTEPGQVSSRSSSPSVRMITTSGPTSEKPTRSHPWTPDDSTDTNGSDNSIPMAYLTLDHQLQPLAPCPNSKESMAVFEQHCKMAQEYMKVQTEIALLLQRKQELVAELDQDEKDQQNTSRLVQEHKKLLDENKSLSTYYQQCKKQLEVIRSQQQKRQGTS
# Chain of MAP3K7 TAB1 (human) (Q15750 whole entry, looked up): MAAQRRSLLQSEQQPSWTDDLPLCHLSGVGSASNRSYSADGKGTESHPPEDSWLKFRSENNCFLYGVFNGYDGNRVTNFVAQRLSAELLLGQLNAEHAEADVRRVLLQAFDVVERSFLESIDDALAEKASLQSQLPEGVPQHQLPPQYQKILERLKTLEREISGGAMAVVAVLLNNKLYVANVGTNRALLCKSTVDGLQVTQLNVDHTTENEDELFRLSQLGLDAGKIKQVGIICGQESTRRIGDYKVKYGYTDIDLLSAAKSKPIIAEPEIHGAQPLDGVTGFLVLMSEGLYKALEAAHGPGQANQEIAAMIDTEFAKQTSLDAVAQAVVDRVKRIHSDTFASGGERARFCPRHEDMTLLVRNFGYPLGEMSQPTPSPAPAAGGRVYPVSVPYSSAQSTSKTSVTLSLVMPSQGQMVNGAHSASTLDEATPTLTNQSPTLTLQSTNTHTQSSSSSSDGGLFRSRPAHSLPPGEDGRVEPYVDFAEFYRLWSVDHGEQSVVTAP
# Chain of GRK4 (human) (P32298 whole entry, looked up): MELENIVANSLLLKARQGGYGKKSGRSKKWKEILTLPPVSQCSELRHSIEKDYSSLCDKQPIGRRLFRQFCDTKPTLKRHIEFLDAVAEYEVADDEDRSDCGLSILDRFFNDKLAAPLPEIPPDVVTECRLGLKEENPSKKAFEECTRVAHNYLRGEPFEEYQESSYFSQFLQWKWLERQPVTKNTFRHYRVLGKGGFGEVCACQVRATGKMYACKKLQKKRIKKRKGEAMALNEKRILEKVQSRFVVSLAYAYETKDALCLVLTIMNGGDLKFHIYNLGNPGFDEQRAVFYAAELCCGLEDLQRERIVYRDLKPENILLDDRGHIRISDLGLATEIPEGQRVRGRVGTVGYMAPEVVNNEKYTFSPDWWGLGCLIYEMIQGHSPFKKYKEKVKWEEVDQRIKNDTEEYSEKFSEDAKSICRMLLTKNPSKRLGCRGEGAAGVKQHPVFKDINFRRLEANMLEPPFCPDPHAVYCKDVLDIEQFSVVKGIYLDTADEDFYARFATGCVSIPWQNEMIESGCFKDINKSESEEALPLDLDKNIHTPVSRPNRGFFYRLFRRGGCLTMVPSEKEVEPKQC
# Chain of ITK (human) (Q08881 whole entry, looked up): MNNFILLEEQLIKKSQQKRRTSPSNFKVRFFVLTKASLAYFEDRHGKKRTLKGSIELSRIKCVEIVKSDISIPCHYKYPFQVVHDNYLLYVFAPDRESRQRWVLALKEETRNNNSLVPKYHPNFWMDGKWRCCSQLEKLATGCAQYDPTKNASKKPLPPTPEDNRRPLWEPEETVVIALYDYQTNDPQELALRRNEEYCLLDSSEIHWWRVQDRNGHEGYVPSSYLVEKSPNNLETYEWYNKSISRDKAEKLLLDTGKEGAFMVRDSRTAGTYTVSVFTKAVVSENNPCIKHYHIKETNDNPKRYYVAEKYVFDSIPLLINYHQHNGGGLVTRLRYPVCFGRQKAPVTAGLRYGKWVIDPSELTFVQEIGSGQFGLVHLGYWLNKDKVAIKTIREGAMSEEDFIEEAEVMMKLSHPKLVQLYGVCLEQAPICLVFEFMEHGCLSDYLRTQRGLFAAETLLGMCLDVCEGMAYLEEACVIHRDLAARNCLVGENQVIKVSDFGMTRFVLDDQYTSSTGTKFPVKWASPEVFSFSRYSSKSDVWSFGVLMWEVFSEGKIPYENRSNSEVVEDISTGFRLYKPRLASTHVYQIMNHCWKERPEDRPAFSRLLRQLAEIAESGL
# Chain of PLK1 (human) (P53350 whole entry, looked up): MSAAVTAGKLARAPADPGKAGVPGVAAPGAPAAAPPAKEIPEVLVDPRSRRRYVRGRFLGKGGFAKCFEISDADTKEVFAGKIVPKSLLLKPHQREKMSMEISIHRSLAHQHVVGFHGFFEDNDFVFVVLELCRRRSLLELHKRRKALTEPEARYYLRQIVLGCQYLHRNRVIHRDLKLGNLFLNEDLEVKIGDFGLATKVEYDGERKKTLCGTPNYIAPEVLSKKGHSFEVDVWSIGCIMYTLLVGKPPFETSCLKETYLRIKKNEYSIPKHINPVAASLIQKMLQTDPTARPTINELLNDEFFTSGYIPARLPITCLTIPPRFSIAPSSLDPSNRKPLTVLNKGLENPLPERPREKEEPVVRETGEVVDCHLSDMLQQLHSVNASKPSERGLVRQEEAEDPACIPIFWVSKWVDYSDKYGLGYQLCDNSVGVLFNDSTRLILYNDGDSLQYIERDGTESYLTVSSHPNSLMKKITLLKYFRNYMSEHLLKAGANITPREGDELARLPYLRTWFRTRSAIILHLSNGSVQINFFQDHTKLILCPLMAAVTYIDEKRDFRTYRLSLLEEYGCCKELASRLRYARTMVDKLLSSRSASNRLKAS
# Chain of CDK4 CCND3 (human) (P11802 whole entry, looked up): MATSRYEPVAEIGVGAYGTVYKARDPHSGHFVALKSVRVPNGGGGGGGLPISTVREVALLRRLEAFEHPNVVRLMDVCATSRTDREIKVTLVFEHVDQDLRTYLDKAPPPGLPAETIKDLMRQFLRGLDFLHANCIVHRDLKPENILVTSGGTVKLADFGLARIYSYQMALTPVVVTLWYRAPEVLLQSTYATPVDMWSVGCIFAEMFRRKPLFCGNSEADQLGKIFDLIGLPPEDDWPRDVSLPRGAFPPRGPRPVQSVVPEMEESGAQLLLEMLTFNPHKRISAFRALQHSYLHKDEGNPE
# Chain of CDK4 CCND3 (human) (P30281 whole entry, looked up): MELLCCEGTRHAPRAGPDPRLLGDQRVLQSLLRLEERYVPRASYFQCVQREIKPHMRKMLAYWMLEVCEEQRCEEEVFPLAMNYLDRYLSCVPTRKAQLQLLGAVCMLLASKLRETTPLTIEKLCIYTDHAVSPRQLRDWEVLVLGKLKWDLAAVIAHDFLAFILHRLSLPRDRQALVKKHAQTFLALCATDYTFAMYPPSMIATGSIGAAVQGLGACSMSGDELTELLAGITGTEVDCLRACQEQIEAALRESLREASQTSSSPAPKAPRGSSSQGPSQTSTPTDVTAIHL
# Chain of ACVR1 (human) (Q04771 whole entry, looked up): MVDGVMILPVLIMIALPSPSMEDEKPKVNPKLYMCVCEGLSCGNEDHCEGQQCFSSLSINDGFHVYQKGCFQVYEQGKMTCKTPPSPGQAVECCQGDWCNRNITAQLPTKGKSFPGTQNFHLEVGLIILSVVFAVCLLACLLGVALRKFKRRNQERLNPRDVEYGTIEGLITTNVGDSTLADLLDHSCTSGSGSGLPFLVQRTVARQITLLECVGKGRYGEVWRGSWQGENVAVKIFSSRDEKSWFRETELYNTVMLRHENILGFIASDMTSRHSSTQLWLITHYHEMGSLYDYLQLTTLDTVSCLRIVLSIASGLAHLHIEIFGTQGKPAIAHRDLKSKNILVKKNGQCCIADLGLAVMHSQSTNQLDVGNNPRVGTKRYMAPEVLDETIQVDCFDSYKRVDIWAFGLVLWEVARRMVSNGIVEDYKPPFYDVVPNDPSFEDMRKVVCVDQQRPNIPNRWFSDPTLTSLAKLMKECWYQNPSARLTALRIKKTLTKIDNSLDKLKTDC
smiles,measurement,setting,value
O=C(c1ccccc1)c1ccc(N2CCOCC2)cc1O,residual activity,[1],75.3%
same,residual activity,[2],93.9%
same,residual activity,[3],96.8%
same,residual activity,[4],108%
same,residual activity,[5],114%
same,residual activity,[6],97.7%
same,residual activity,[7],111%
same,residual activity,[8],99.6%
same,residual activity,[9],99.1%
same,residual activity,[10],103%
same,residual activity,[11],109%
same,residual activity,[12],104%
same,residual activity,[13],107%
same,residual activity,[14],99.1%
same,residual activity,[15],100% and 105%
same,residual activity,[16],102%
same,residual activity,[17],103%
same,residual activity,[18],99.1%
same,residual activity,[19],96.6%
same,residual activity,[20],104%
same,residual activity,[21],104%
same,residual activity,[22],98.9%
same,residual activity,[23],90.9%
same,residual activity,[24],104%
same,residual activity,[25],105%
same,residual activity,[26],99.5%
same,residual activity,[27],107%
same,residual activity,[28],96.2%
same,residual activity,[29],95%
same,residual activity,[30],99.2%
same,residual activity,[31],102%
same,residual activity,[32],101%
same,residual activity,[33],98.3%
same,residual activity,[34],96.2%
same,residual activity,[35],101%
same,residual activity,[36],100%
same,residual activity,[37],103%
same,residual activity,[38],98.9%
same,residual activity,[39],83.9%
same,residual activity,[40],107%
same,residual activity,[41],105%
same,residual activity,[42],96.1%
O=c1c(-c2ccc(F)cc2)c(-c2ccncc2)[nH]n1-c1ccc(Cl)cc1,residual activity,[1],97.1%
same,residual activity,[2],104%
same,residual activity,[3],86.9%
same,residual activity,[4],97%
same,residual activity,[5],87.7%
same,residual activity,[6],93.9%
same,residual activity,[7],88.7%
same,residual activity,[8],106%
same,residual activity,[9],94%
same,residual activity,[10],107%
same,residual activity,[11],95.1%
same,residual activity,[12],97.9%
same,residual activity,[13],101%
same,residual activity,[14],96.3%
same,residual activity,[15],97.5% and 99.7%
same,residual activity,[16],73.2%
same,residual activity,[17],83.6%
same,residual activity,[18],101%
same,residual activity,[19],98.9%
same,residual activity,[20],94.3%
same,residual activity,[21],98.3%
same,residual activity,[22],6.07%
same,residual activity,[23],103%
same,residual activity,[25],100%
same,residual activity,[26],79.7%
same,residual activity,[27],98.5%
same,residual activity,[28],101%
same,residual activity,[29],106%
same,residual activity,[30],92.4%
same,residual activity,[31],110%
same,residual activity,[32],100%
same,residual activity,[33],96.2%
same,residual activity,[34],103%
same,residual activity,[35],121%
same,residual activity,[36],88.3%
same,residual activity,[37],90.6%
same,residual activity,[38],87.6%
same,residual activity,[39],91.5%
same,residual activity,[40],91.7%
same,residual activity,[41],83.4%
same,residual activity,[42],74.5%
N#CCCc1ccc2c(c1)-c1[nH]c3ccc([N+](=O)[O-])cc3c1CC(=O)N2,residual activity,[1],93.3%
same,residual activity,[2],78.6%
same,residual activity,[3],46.8%
same,residual activity,[4],99.6%
same,residual activity,[5],95.4%
same,residual activity,[6],104%
same,residual activity,[7],67.6%
same,residual activity,[8],96.4%
same,residual activity,[9],93.2%
same,residual activity,[10],103%
same,residual activity,[11],82.2%
same,residual activity,[12],101%
same,residual activity,[13],86.4%
same,residual activity,[14],99.7%
same,residual activity,[16],91.8%
same,residual activity,[17],94.6%
same,residual activity,[18],93.9%
same,residual activity,[19],58%
same,residual activity,[20],28.6%
same,residual activity,[21],101%
same,residual activity,[22],97.1%
same,residual activity,[23],54.1%
same,residual activity,[24],97.9%
same,residual activity,[25],99.2%
same,residual activity,[26],99.9%
same,residual activity,[27],86.7%
same,residual activity,[28],25.9%
same,residual activity,[29],101%
same,residual activity,[30],76.3%
same,residual activity,[31],93.9%
same,residual activity,[32],38.1%
same,residual activity,[33],65.3%
same,residual activity,[34],59.9%
same,residual activity,[35],99.1%
same,residual activity,[36],40.9%
same,residual activity,[37],105%
same,residual activity,[38],89.8%
same,residual activity,[39],99.9%
same,residual activity,[40],58.8%
same,residual activity,[41],81.6%
same,residual activity,[42],84%
CCCCc1c(-c2ccc(O)cc2)[nH]c2nccnc12,residual activity,[1],100%
same,residual activity,[2],95.4%
same,residual activity,[3],93.1%
same,residual activity,[4],97.9%
same,residual activity,[5],75.6%
same,residual activity,[6],82.2%
same,residual activity,[7],64.8%
same,residual activity,[8],76.5%
same,residual activity,[9],94.5%
same,residual activity,[10],105%
same,residual activity,[11],83.1%
same,residual activity,[12],101%
same,residual activity,[13],62.7%
same,residual activity,[14],90.6%
same,residual activity,[15],106% and 87.3%
same,residual activity,[16],102%
same,residual activity,[17],61.7%
same,residual activity,[18],95.7%
same,residual activity,[19],53.5%
same,residual activity,[20],90.8%
same,residual activity,[21],96.6%
same,residual activity,[22],90.2%
same,residual activity,[24],97.6%
same,residual activity,[25],95.3%
same,residual activity,[26],104%
same,residual activity,[27],89.7%
same,residual activity,[28],71%
same,residual activity,[29],123%
same,residual activity,[30],118%
same,residual activity,[31],92.6%
same,residual activity,[32],80.3%
same,residual activity,[33],99.4%
same,residual activity,[34],82.6%
same,residual activity,[35],100%
same,residual activity,[36],76.6%
same,residual activity,[37],96%
same,residual activity,[38],91.8%
same,residual activity,[39],64.3%
same,residual activity,[40],83.8%
same,residual activity,[41],93.1%
same,residual activity,[42],67.4%
